In US20140343000A1 (priority 2011, published 2014):
pEC50: −log10 of the molar value.

The molecules below were run on recombinant NL4-3 virus (Renilla luciferase in nef, Gag P373S; NLRluc) in MT-2 cells (assay: whole plant or invertebrate). Conditions: Renilla, NL43, luciferase activity in cells infected for 4-5 days with NLRluc recombinants, serial dilutions of inhibitor; class symbols (key in Table 1); read-out: EC50.
Format: cell-based, HIV
Experimental: MT-2 cells and 293T cells were obtained from the NIH AIDS Research and Reference Reagent Program. MT-2 cells were propagated in RPMI 1640 media supplemented with 10% heat inactivated fetal bovine serum, […]. The 293T cells were propagated in DMEM media supplemented with 10% heat inactivated fetal bovine serum (FBS), 100 units/ml penicillin G and 100 μg/ml streptomycin. The proviral DNA clone of NL4-3 was obtained from the NIH AIDS Research and Reference Reagent Program. A recombinant NL4-3 virus, in which a section of the nef gene from NL4-3 was replaced with the Renilla luciferase gene, was used as a reference virus. In addition, residue Gag P373 was converted to P373S. Briefly, the recombinant virus was prepared by transfection of the altered proviral clone of NL4-3. Transfections were performed in 293T cells using LipofectAMINE PLUS from Invitrogen (Carlsbad, Calif.), according to manufacturer's instruction. The virus was titered in MT-2 cells using luciferase enzyme activity as a marker. Luciferase was quantitated using the Dual Luciferase kit from Promega (Madison, Wis.), with modifications to the manufacturer's protocol. The diluted Passive Lysis solution was pre-mixed with the re-suspended Luciferase Assay Reagent and the re-suspended Stop & Glo Substrate (2:1:1 ratio). Fifty (50) μL of the mixture was added to each aspirated well on assay plates and luciferase activity was measured immediately on a Wallac TriLux (Perkin-Elmer). Antiviral activities of inhibitors toward the recombinant virus were quantified by measuring luciferase activity in cells infected for 4-5 days with NLRluc recombinants in the presence serial dilutions of the inhibitor. Table 1 is the key for the data in Table 2.
`C=C(C)[C@@H]1CC[C@]2(NCCN3CCN(C(=O)C4CCCC4)CC3)CC[C@]3(C)[C@H](CC[C@@H]4[C@@]5(C)CC=C(c6ccc(C(=O)O)cc6)C(C)(C)[C@@H]5CC[C@]43C)[C@@H]12` [Example B55, 4-((1R,3aS,5aR,5bR,7aR,11aS,11bR,13aR,13bR)-3a-((2-(4-(cyclopentanecarbonyl)piperazin-1-yl)ethyl)amino)-5a,5b,8,8,11a-pentamethyl-1-(prop-1-en-2-yl)-2,3,3a,4,5,5a,5b,6,7,7a,8,11,11a,11b,12,13,13a,13b-octadecahydro-1H-cyclopenta[a]chrysen-9-yl)benzoic acid] was tested, and the pEC50 was over 7.00.
`C=C(C)[C@@H]1CC[C@]2(NCCN3CCN(C(C)(C)C)CC3)CC[C@]3(C)[C@H](CC[C@@H]4[C@@]5(C)CC=C(c6ccc(C(=O)O)cc6)C(C)(C)[C@@H]5CC[C@]43C)[C@@H]12` [Example B27, 4-((1R,3aS,5aR,5bR,7aR,11aS,11bR,13aR,13bR)-3a-((2-(4-(tert-butyl)piperazin-1-yl)ethyl)amino)-5a,5b,8,8,11a-pentamethyl-1-(prop-1-en-2-yl)-2,3,3a,4,5,5a,5b,6,7,7a,8,11,11a,11b,12,13,13a,13b-octadecahydro-1H-cyclopenta[a]chrysen-9-yl)benzoic acid] showed a pEC50 of over 7.00.
`C=C(C)[C@@H]1CC[C@]2(NC(=O)N3CCNC(=O)CC3)CC[C@]3(C)[C@H](CC[C@@H]4[C@@]5(C)CC=C(c6ccc(C(=O)O)cc6)C(C)(C)[C@@H]5CC[C@]43C)[C@@H]12` [Example 42, 4-((1R,3aS,5aR,5bR,7aR,11aS,11bR,13aR,13bR)-5a,5b,8,8,11a-pentamethyl-3a-(5-oxo-1,4-diazepane-1-carboxamido)-1-(prop-1-en-2-yl)-2,3,3a,4,5,5a,5b,6,7,7a,8,11,11a,11b,12,13,13a,13b-octadecahydro-1H-cyclopenta[a]chrysen-9-yl)benzoic acid] showed a pEC50 of over 7.00.
Molecule `C=C(C)[C@@H]1CC[C@]2(NC(=O)N(C)CCN3CCCC3)CC[C@]3(C)[C@H](CC[C@@H]4[C@@]5(C)CC=C(c6ccc(C(=O)O)cc6)C(C)(C)[C@@H]5CC[C@]43C)[C@@H]12` [Example 44, 4-((1R,3aS,5aR,5bR,7aR,11aS,11bR,13aR,13bR)-5a,5b,8,8,11a-pentamethyl-3a-(3-methyl-3-(2-(pyrrolidin-1-yl)ethyl)ureido)-1-(prop-1-en-2-yl)-2,3,3a,4,5,5a,5b,6,7,7a,8,11,11a,11b,12,13,13a,13b-octadecahydro-1H-cyclopenta[a]chrysen-9-yl)benzoic acid] has a pEC50 of over 7.00.
With `C=C(C)[C@@H]1CC[C@]2(NC(=O)CN3CCCCC3C)CC[C@]3(C)[C@H](CC[C@@H]4[C@@]5(C)CC=C(c6ccc(C(=O)O)cc6)C(C)(C)[C@@H]5CC[C@]43C)[C@@H]12` (stereo partly drawn) [Example 124, 4-((1R,3aS,5aR,5bR,7aR,11aS,11bR,13aR,13bR)-5a,5b,8,8,11a-pentamethyl-3a-(2-(2-methylpiperidin-1-yl)acetamido)-1-(prop-1-en-2-yl)-2,3,3a,4,5,5a,5b,6,7,7a,8,11,11a,11b,12,13,13a,13b-octadecahydro-1H-cyclopenta[a]chrysen-9-yl)benzoic acid] the pEC50 was over 7.00.
`C=C(C)[C@@H]1CC[C@]2(NC(=O)N3CCN(C)CC3)CC[C@]3(C)[C@H](CC[C@@H]4[C@@]5(C)CC=C(c6ccc(C(=O)O)cc6)C(C)(C)[C@@H]5CC[C@]43C)[C@@H]12` [Example 54, 4-((1R,3aS,5aR,5bR,7aR,11aS,11bR,13aR,13bR)-5a,5b,8,8,11a-pentamethyl-3a-(4-methylpiperazine-1-carboxamido)-1-(prop-1-en-2-yl)-2,3,3a,4,5,5a,5b,6,7,7a,8,11,11a,11b,12,13,13a,13b-octadecahydro-1H-cyclopenta[a]chrysen-9-yl)benzoic acid] gave a pEC50 of over 7.00.
For `C=C(C)[C@@H]1CC[C@]2(NCCCN3CCOCC3)CC[C@]3(C)[C@H](CC[C@@H]4[C@@]5(C)CC=C(c6ccc(C(=O)O)cc6)C(C)(C)[C@@H]5CC[C@]43C)[C@@H]12` [Example 165, 4-((1R,3aS,5aR,5bR,7aR,11aS,11bR,13aR,13bR)-5a,5b,8,8,11a-pentamethyl-3a-(3-morpholinopropylamino)-1-(prop-1-en-2-yl)-2,3,3a,4,5,5a,5b,6,7,7a,8,11,11a,11b,12,13,13a,13b-octadecahydro-1H-cyclopenta[a]chrysen-9-yl)benzoic acid], the pEC50 was over 7.00.
Work on `C=C(C)[C@@H]1CC[C@]2(NC(=O)N3CCCCC3)CC[C@]3(C)[C@H](CC[C@@H]4[C@@]5(C)CC=C(c6ccc(C(=O)O)cc6)C(C)(C)[C@@H]5CC[C@]43C)[C@@H]12` [Example 15, 4-((1R,3aS,5aR,5bR,7aR,11aS,11bR,13aR,13bR)-5a,5b,8,8,11a-pentamethyl-3a-(piperidine-1-carboxamido)-1-(prop-1-en-2-yl)-2,3,3a,4,5,5a,5b,6,7,7a,8,11,11a,11b,12,13,13a,13b-octadecahydro-1H-cyclopenta[a]chrysen-9-yl)benzoic acid] yielded a pEC50 of over 7.00.
With `C=C(C)[C@@H]1CC[C@]2(NC(=O)N3CCNC(=O)C3)CC[C@]3(C)[C@H](CC[C@@H]4[C@@]5(C)CC=C(c6ccc(C(=O)O)cc6)C(C)(C)[C@@H]5CC[C@]43C)[C@@H]12` [Example 57, 4-((1R,3aS,5aR,5bR,7aR,11aS,11bR,13aR,13bR)-5a,5b,8,8,11a-pentamethyl-3a-(3-oxopiperazine-1-carboxamido)-1-(prop-1-en-2-yl)-2,3,3a,4,5,5a,5b,6,7,7a,8,11,11a,11b,12,13,13a,13b-octadecahydro-1H-cyclopenta[a]chrysen-9-yl)benzoic acid] the pEC50 was over 7.00.
`C=C(C)[C@@H]1CC[C@]2(NC(=O)C(NC3CCS(=O)(=O)C3)C(C)C)CC[C@]3(C)[C@H](CC[C@@H]4[C@@]5(C)CC=C(c6ccc(C(=O)O)cc6)C(C)(C)[C@@H]5CC[C@]43C)[C@@H]12` (stereo partly drawn) [Example 112, benzoic acid, 4-[(1R,3aS,5aR,5bR,7aR,11aS,11bR,13aR,13bR)-2,3,3a,4,5,5a,5b,6,7,7a,8,11,11a,11b,12,13,13a,13b-octadecahydro-5a,5b,8,8,11a-pentamethyl-1-(1-methylethenyl)-3a-[[3-methyl-1-oxo-2-[(tetrahydro-1,1-dioxido-3-thienyl)amino]butyl]amino]-1H-cyclopenta[a]chrysen-9-yl]] showed a pEC50 of over 7.00.
Work on `C=C(C)[C@@H]1CC[C@]2(NC(=O)N(C)CCN(C)C)CC[C@]3(C)[C@H](CC[C@@H]4[C@@]5(C)CC=C(c6ccc(C(=O)O)cc6)C(C)(C)[C@@H]5CC[C@]43C)[C@@H]12` [Example 24, 4-((1R,3aS,5aR,5bR,7aR,11aS,11bR,13aR,13bR)-3a-(3-(2-(dimethylamino)ethyl)-3-methylureido)-5a,5b,8,8,11a-pentamethyl-1-(prop-1-en-2-yl)-2,3,3a,4,5,5a,5b,6,7,7a,8,11,11a,11b,12,13,13a,13b-octadecahydro-1H-cyclopenta[a]chrysen-9-yl)benzoic acid] yielded a pEC50 of over 7.00.
Work on `C=C(C)[C@@H]1CC[C@]2(NCCN3CCN(S(=O)(=O)c4ccccc4)CC3)CC[C@]3(C)[C@H](CC[C@@H]4[C@@]5(C)CC=C(c6ccc(C(=O)O)cc6)C(C)(C)[C@@H]5CC[C@]43C)[C@@H]12` [Example B44, 4-((1R,3aS,5aR,5bR,7aR,11aS,11bR,13aR,13bR)-5a,5b,8,8,11a-pentamethyl-3a-((2-(4-(phenylsulfonyl)piperazin-1-yl)ethyl)amino)-1-(prop-1-en-2-yl)-2,3,3a,4,5,5a,5b,6,7,7a,8,11,11a,11b,12,13,13a,13b-octadecahydro-1H-cyclopenta[a]chrysen-9-yl)benzoic acid] yielded a pEC50 of over 7.00.
In the case of `CC(C)[C@@H]1CC[C@]2(NCCN3CCS(=O)(=O)CC3)CC[C@]3(C)[C@H](CC[C@@H]4[C@@]5(C)CC=C(c6ccc(C(=O)O)cc6)C(C)(C)[C@@H]5CC[C@]43C)[C@@H]12` [Example 163, 4-((1S,3aS,5aR,5bR,7aR,11aS,11bR,13aR,13bR)-3a-((2-(1,1-dioxido-4-thiomorpholinyl)ethyl)amino)-1-isopropyl-5a,5b,8,8,11a-pentamethyl-2,3,3a,4,5,5a,5b,6,7,7a,8,11,11a,11b,12,13,13a,13b-octadecahydro-1H-cyclopenta[a]chrysen-9-yl)benzoic acid], the pEC50 was over 7.00.
For `C=C(C)[C@@H]1CC[C@]2(NCCNCCC(=O)N(C)C)CC[C@]3(C)[C@H](CC[C@@H]4[C@@]5(C)CC=C(c6ccc(C(=O)O)cc6)C(C)(C)[C@@H]5CC[C@]43C)[C@@H]12` [Example 142, 4-((1R,3aS,5aR,5bR,7aR,11aS,11bR,13aR,13bR)-3a-(2-(3-(dimethylamino)-3-oxopropylamino)ethylamino)-5a,5b,8,8,11a-pentamethyl-1-(prop-1-en-2-yl)-2,3,3a,4,5,5a,5b,6,7,7a,8,11,11a,11b,12,13,13a,13b-octadecahydro-1H-cyclopenta[a]chrysen-9-yl)benzoic acid], the pEC50 was over 7.00.
